Experimental data from ChEMBL document CHEMBL1139391, “Synthesis and structure-activity relationship of benzetimide derivatives as human CXCR3 antagonists” (Bioorg Med Chem Lett, 2008).

How the values were obtained:
[1] = biological target: T1, C-X-C chemokine receptor type 3 (Homo sapiens, UniProt P49682); experiment: Antagonist activity at human CXCR3 expressed in CHO cells assessed as inhibition of ITAC-stimulated [35S]GTPgammaS binding pretreated 30 mins before ITAC challenge; assay type: functional, cell-based
T1 sequence (P49682 whole entry): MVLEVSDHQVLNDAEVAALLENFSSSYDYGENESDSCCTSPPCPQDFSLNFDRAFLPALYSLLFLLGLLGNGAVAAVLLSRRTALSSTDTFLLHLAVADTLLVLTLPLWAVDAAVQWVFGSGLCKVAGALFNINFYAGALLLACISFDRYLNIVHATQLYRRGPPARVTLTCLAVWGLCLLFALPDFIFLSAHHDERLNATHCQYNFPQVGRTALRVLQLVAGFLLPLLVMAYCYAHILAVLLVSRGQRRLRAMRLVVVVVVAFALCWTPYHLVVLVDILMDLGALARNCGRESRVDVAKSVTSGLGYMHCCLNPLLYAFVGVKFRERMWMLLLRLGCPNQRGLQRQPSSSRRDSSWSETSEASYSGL

[2] = biological target: T2, Muscarinic acetylcholine receptor M1 (Homo sapiens, UniProt P11229); experiment: Binding affinity to human muscarinic M1 receptor
T2 sequence (P11229 whole entry): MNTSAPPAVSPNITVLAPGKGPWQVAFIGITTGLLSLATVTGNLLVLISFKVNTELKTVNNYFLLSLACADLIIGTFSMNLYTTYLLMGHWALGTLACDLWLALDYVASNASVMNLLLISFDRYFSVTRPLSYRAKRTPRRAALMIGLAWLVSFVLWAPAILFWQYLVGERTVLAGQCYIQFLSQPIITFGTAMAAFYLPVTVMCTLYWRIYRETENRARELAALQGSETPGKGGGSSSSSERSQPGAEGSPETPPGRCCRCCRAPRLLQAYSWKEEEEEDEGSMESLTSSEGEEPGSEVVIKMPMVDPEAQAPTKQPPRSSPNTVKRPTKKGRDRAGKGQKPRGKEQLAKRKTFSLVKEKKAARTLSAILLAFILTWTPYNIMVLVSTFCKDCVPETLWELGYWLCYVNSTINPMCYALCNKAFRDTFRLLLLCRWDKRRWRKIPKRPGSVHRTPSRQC

[3] = biological target: T3, Muscarinic acetylcholine receptor M2 (Homo sapiens, UniProt P08172); experiment: Binding affinity to human muscarinic M2 receptor
T3 sequence (P08172 whole entry): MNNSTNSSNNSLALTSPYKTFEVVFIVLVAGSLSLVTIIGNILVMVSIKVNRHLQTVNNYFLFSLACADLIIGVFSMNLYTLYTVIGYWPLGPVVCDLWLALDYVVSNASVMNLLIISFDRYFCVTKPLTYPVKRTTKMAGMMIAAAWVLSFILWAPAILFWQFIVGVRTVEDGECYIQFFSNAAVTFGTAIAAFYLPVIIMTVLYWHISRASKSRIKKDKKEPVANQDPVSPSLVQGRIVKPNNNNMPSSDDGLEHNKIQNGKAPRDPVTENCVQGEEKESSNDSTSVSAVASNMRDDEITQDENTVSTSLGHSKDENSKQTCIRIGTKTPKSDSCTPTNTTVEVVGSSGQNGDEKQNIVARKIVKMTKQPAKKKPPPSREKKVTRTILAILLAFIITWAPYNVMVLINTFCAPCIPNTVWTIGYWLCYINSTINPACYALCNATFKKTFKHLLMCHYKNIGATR

[4] = biological target: Muscarinic acetylcholine receptor M3 (Homo sapiens, UniProt P20309); experiment: Binding affinity to human muscarinic M3 receptor
Chain of Muscarinic acetylcholine receptor M3 (P20309 whole entry): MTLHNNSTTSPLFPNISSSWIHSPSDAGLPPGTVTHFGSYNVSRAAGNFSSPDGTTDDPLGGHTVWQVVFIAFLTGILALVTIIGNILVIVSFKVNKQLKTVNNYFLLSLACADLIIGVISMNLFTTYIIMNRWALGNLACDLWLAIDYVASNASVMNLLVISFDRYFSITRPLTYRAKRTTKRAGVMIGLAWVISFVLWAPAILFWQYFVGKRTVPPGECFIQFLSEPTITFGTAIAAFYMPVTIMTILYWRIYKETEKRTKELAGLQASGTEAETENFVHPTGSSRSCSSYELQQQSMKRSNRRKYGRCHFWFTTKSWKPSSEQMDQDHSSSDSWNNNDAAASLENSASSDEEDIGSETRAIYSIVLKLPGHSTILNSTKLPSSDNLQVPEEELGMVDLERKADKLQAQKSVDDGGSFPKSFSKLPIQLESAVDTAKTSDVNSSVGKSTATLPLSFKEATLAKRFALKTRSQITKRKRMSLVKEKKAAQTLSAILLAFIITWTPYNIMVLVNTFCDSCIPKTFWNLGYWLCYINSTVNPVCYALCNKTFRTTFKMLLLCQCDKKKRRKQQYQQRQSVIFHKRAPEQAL

Row | Structure (SMILES) | IC50 [1] | IC50 [2] | IC50 [3] | IC50 [4] | IC50 ([1]; cho)
1 | O=C1CCC(c2ccc(F)cc2F)(C2CCN(Cc3ccc(Br)cc3)CC2)C(=O)N1 (single isomer, unassigned; (+)) | 330 nM | < 1 nM | < 1 nM | < 1 nM | 
2 | O=C(Nc1ccccc1)N1CCCC(c2ccccc2)(C2CCN(Cc3ccc(Br)cc3)CC2)C1 (single isomer, unassigned; (+)) | 6310 nM | 8900 nM | > 10000 nM | > 10000 nM | 
3 | O=C1CCC(c2ccccc2)(C2CCN(Cc3ccc(Cl)cc3)CC2)C(=O)N1 (racemic) | 830 nM |  |  |  | 
4 | CCCN1C(=O)CCC(c2ccccc2)(C2CCN(Cc3ccc(Br)cc3)CC2)C1=O (racemic) | 5010 nM |  |  |  | 
5 | COc1ccc(CN2CCC(C3(c4ccccc4)CCC(=O)NC3=O)CC2)cc1 (racemic) | 4270 nM |  |  |  | 
6 | O=C1CCC(c2ccccc2)(C2CCN(Cc3ccc(F)cc3)CC2)C(=O)N1 (racemic) | 4570 nM |  |  |  | 
7 | O=C1CCC(c2ccccc2)(C2CCN(Cc3ccccc3)CC2)C(=O)N1 (single isomer, unassigned; (+)) [BENZETIMIDE] |  | < 1 nM | < 1 nM | < 1 nM | > 10000 nM
8 | CN1CCN(C(=O)c2cccc(C3(C4CCN(Cc5ccc(Br)cc5)CC4)CCC(=O)NC3=O)c2)CC1 (racemic) | 1260 nM |  |  |  | 
9 | O=C1CCC(c2ccc(F)cc2)(C2CCN(Cc3ccc(Br)cc3)CC2)C(=O)N1 (racemic) | 1260 nM |  |  |  | 
10 | O=C1CCC(c2ccccc2)(C2CCN(Cc3ccc(Br)cc3)CC2)C(=O)N1 (single isomer, unassigned; (+)) | 1330 nM | < 1 nM | < 1 nM | < 1 nM | 
11 | O=C1CCC(c2ccccc2)(C2CCN(Cc3ccc(Cl)c(F)c3)CC2)C(=O)N1 (single isomer, unassigned; (-)) | 340 nM |  |  |  | 
12 | COc1cccc(C2(C3CCN(Cc4ccc(Br)cc4)CC3)CCC(=O)NC2=O)c1 (racemic) | 1550 nM |  |  |  | 
13 | Brc1ccc(CN2CCC(C3(c4ccccc4)CCCNC3)CC2)cc1 (racemic) | > 10000 nM |  |  |  | 
14 | O=C1CCC(c2ccccc2)(C2CCN(Cc3ccccc3)CC2)C(=O)N1 (stereo in doubt; (-)-3a) [BENZETIMIDE] |  | > 10000 nM | > 10000 nM | > 10000 nM | > 10000 nM
15 | O=C(N1CCCC(c2ccccc2)(C2CCN(Cc3ccc(Br)cc3)CC2)C1)C(F)(F)F (racemic) | 690 nM |  |  |  | 
16 | CC(=O)N1CCCC(c2ccccc2)(C2CCN(Cc3ccc(Br)cc3)CC2)C1 (single isomer, unassigned; (+)) | 2310 nM | > 10000 nM | > 10000 nM | > 10000 nM | 
17 | Cc1ccc(CN2CCC(C3(c4ccccc4)CCC(=O)NC3=O)CC2)cc1 (racemic) [MELETIMIDE] | 2400 nM |  |  |  | 
18 | NC(=O)CN1CCCC(c2ccccc2)(C2CCN(Cc3ccc(Br)cc3)CC2)C1 (single isomer, unassigned; (-)) | 810 nM | 5000 nM | 2000 nM | 1100 nM | 
19 | O=C1CCC(c2cccc(Cl)c2)(C2CCN(Cc3ccc(Br)cc3)CC2)C(=O)N1 (racemic) | 1450 nM |  |  |  | 
20 | O=C1CCC(c2ccccc2)(C2CCN(Cc3ccc(Cl)c(C(F)(F)F)c3)CC2)C(=O)N1 (racemic) | 2510 nM |  |  |  | 
21 | O=C1CCC(c2ccccc2)(C2CCN(Cc3ccc(Br)cc3)CC2)C(=O)N1 (racemic) | 780 nM |  |  |  | 
22 | O=C1CCC(c2ccccc2)(C2CCN(Cc3ccccc3)CC2)C(=O)N1 (racemic) [BENZETIMIDE] | > 10000 nM |  |  |  | 
23 | O=C1CCC(c2ccccc2)(C2CCN(Cc3ccc(Cl)cc3Cl)CC2)C(=O)N1 (racemic) | 3160 nM |  |  |  | 
24 | COc1ccc(C2(C3CCN(Cc4ccc(Br)cc4)CC3)CCC(=O)NC2=O)cc1 (racemic) | 3630 nM |  |  |  | 

Continued, in another order:

Row | IC50 [1] | IC50 [2] | IC50 [3] | IC50 [4] | Structure (SMILES) | IC50 ([1]; cho)
25 | 320 nM |  |  |  | CCOC(=O)N1CCCC(c2ccccc2)(C2CCN(Cc3ccc(Br)cc3)CC2)C1 (racemic) | 
26 | 110 nM | 10000 nM | 10000 nM | 3000 nM | CC(=O)N1CCCC(c2ccccc2)(C2CCN(Cc3ccc(Br)cc3)CC2)C1 (single isomer, unassigned; (-)) | 
27 | 320 nM |  |  |  | Nc1cccc(C2(C3CCN(Cc4ccc(Br)cc4)CC3)CCC(=O)NC2=O)c1 (racemic) | 
28 | 140 nM |  |  |  | CC(=O)N1CCCC(c2ccccc2)(C2CCN(Cc3ccc(Br)cc3)CC2)C1 (racemic) | 
29 | 170 nM |  |  |  | COc1ccc(S(=O)(=O)O)cc1C1(C2CCN(Cc3ccc(Br)cc3)CC2)CCC(=O)NC1=O (racemic) | 
30 | 60 nM | > 10000 nM | > 10000 nM | > 10000 nM | NC(=O)CN1CCCC(c2ccccc2)(C2CCN(Cc3ccc(Br)cc3)CC2)C1 (stereo in doubt; (+)-47b) | 
31 | 120 nM |  |  |  | O=C1CCC(c2ccc(F)cc2F)(C2CCN(Cc3ccc(Br)cc3)CC2)C(=O)N1 (racemic) | 
32 | 290 nM |  |  |  | CCC(=O)N1CCCC(c2ccccc2)(C2CCN(Cc3ccc(Br)cc3)CC2)C1 (racemic) | 
33 | 80 nM |  |  |  | NC(=O)CN1CCCC(c2ccccc2)(C2CCN(Cc3ccc(Br)cc3)CC2)C1 (racemic) | 
34 | 60 nM | > 10000 nM | > 10000 nM | > 10000 nM | O=C1CCC(c2ccc(F)cc2F)(C2CCN(Cc3ccc(Br)cc3)CC2)C(=O)N1 (single isomer, unassigned; (-)) | 
35 | 30 nM | > 10000 nM | > 10000 nM | > 10000 nM | O=C(Nc1ccccc1)N1CCCC(c2ccccc2)(C2CCN(Cc3ccc(Br)cc3)CC2)C1 (single isomer, unassigned; (-)) | 
36 | 60 nM |  |  |  | O=C(Nc1ccccc1)N1CCCC(c2ccccc2)(C2CCN(Cc3ccc(Br)cc3)CC2)C1 (racemic) | 
37 | 210 nM |  |  |  | NS(=O)(=O)N1CCCC(c2ccccc2)(C2CCN(Cc3ccc(Br)cc3)CC2)C1 (racemic) | 
38 | 150 nM |  |  |  | O=CN1CCCC(c2ccccc2)(C2CCN(Cc3ccc(Br)cc3)CC2)C1 (racemic) | 
39 | 250 nM |  |  |  | NC(=O)N1CCCC(c2ccccc2)(C2CCN(Cc3ccc(Br)cc3)CC2)C1 (racemic) | 
40 | 180 nM |  |  |  | O=C(C1CC1)N1CCCC(c2ccccc2)(C2CCN(Cc3ccc(Br)cc3)CC2)C1 (racemic) | 
